Measured values as given in article PMC8230956, “Inhibition of the Human Hsc70 System by Small Ligands as a Potential Anticancer Approach” (Cancers, 2021).
Read-outs that look alike come from different tables or passages of the source.

How the values were obtained:
A2058 cells = test: Cell viability assay (XTT or Presto Blue), A2058; assay type: cell-based, human; conditions: for Effect on cell viability (toxicity), A2058: increasing concentrations, different incubation times
From the text: (§1) Cells grew in Dulbecco’s Modified Eagle Medium (DMEM) high glucose (Sigma-Aldrich) supplemented with heat-inactivated 10% fetal bovine serum (FBS) (HyClone™, GE Healthcare, IL, USA). […] Primary human melanocytes (human epidermal melanocytes, neonatal, light pigmented, HEMn-LP) were purchased from Invitrogen (Waltham, MA, USA, C-002-5C).
(§2) Two colorimetric assays were used to study the cytotoxic effects of the selected compounds: the XTT Cell Proliferation Kit II (Roche) and Presto Blue™ Cell Viability Reagent (Invitrogen). Exponentially growing cell lines seeded at 20,000 cells/well in 96-well flat bottom plates (Sarstedt) were incubated overnight in 150 µL of the corresponding growth medium. The following day, the medium was replaced by fresh medium (150 µL) containing 1% FBS (except for melanocytes) and 0.9% DMSO in the presence or absence of different concentrations of compounds. A2058 and MeWo cells were treated with increasing compound concentrations for cell viability assays. […] Cell viability in plates treated with XTT was determined by reading the absorbance at 490 nm in a Synergy HTX plate reader (BioTek). […] In both cases, the absorbance of the medium was subtracted from cell-containing wells. Control values (without compounds but with 0.9% DMSO) were taken as 100% viability.

fibroblasts (MRC-5) = test: Cell viability assay (XTT or Presto Blue), fibroblasts; assay type: cell-based, human; conditions: 20 µM, up to 12 h
From the text: as §1, §2

Hsc70 + DnaJB1 + Apg2 = target: T1, Hsc70 + DnaJB1 + Apg2 (Homo sapiens, UniProt P11142+P34932); test: Reactivation of G6PDH aggregates by the ternary chaperone mixture; assay type: biochemical
T1 construct: His6-SUMO (N, cleaved yes); made in house; host or cells: E. coli BL21 Rosetta
Method: (§3) Subsequently, aggregates were stabilized for 30 min at 30 °C. The properties of these aggregates have been previously reported, and typically show a hydrodynamic radius of approximately 500–600 nm. Aggregates (0.4 µM final concentration) were added to samples containing 2 µM Hsc70 and 0.5 µM DnaJB1 in the absence or presence of 0.4 µM Apg2. […] A preincubation of the samples with compounds for 30 min at 30 °C was done prior to starting the reaction. The reaction was started with the addition of 2 mM ATP and the ATP-regeneration system (3 mM PEP and 20 ng/mL PK). Final sample volume was 100 µL. Reactivation was monitored at 30 °C for 180 min. At different times of the reaction, 5 µL of sample were added to 250 µL buffer containing 50 mM Tris-HCl pH 7.5, 50 mM KCl, 20 mM MgCl2, 10 mM DTT, 1 mM NADP^+, 2.5 mM G6P (Sigma-Aldrich). NADPH formation was measured recording the absorbance increase at 340 nm in a Synergy HTX plate reader (BioTek, Winooski, VT, USA) in transparent 96-well plates with flat bottom (Sarstedt, Newton, NC, USA) for 5 min. Reactivation percentages were calculated considering the slope of NADPH formation for native G6PDH as 100% activity. […] IC50 values were estimated with a sigmoidal dose-response ligand-binding equation.

MeWo cells = test: Cell viability assay (XTT or Presto Blue), MeWo; assay type: cell-based, human; conditions: increasing concentrations, different incubation times
From the text: as §1, §2

Hsc70 + DnaJB1 = target: T2, Hsc70 + DnaJB1 (Homo sapiens, UniProt P11142); test: Reactivation of G6PDH aggregates by the binary chaperone mixture; assay type: biochemical; conditions: 2 µM Hsc70, 0.5 µM DnaJB1, 0.4 µM G6PDH aggregates; means ± SD of three experiments
T2 construct: His6-SUMO (N, cleaved yes); made in house; host or cells: E. coli BL21 Rosetta
Method: as §3

[1] = tested on: melanocytes (HEMn-LP non-malignant skin cells); test: Cell viability assay (XTT or Presto Blue), primary melanocytes; assay type: cell-based, human; conditions: 20 µM, up to 12 h
From the text: as §1, §2

[2] = tested on: non-transformed cell lines; parameters: method as in PMID 19027770, PMID 17981006, PMID 18171263; conditions: cited from earlier work
[3] = 2 µM Hsc70, 0.5 µM DnaJB1, 0.4 µM Apg2, 0.4 µM G6PDH aggregates, means ± SD of three experiments, read-out: IC50 G6PDH Reactivation Hsc70 + DnaJB1 + Apg2

T2 sequence (P11142 whole entry): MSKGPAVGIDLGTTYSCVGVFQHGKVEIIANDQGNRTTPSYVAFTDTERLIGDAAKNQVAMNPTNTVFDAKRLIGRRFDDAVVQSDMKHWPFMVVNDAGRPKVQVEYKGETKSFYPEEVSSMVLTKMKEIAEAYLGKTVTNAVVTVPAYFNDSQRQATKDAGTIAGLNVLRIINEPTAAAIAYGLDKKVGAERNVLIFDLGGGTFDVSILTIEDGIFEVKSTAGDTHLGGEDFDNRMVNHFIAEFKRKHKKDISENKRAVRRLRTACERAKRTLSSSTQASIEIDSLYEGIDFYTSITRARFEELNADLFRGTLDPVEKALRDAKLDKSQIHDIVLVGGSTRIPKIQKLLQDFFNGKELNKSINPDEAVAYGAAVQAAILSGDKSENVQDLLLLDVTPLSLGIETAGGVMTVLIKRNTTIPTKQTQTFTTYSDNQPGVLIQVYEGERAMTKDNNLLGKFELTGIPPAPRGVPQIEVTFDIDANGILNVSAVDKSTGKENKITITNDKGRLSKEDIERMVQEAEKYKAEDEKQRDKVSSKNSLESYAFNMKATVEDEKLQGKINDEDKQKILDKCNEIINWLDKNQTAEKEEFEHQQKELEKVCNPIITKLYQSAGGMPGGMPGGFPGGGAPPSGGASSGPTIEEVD
T1 sequence (P11142 whole entry): as above
T1 sequence (P34932 whole entry): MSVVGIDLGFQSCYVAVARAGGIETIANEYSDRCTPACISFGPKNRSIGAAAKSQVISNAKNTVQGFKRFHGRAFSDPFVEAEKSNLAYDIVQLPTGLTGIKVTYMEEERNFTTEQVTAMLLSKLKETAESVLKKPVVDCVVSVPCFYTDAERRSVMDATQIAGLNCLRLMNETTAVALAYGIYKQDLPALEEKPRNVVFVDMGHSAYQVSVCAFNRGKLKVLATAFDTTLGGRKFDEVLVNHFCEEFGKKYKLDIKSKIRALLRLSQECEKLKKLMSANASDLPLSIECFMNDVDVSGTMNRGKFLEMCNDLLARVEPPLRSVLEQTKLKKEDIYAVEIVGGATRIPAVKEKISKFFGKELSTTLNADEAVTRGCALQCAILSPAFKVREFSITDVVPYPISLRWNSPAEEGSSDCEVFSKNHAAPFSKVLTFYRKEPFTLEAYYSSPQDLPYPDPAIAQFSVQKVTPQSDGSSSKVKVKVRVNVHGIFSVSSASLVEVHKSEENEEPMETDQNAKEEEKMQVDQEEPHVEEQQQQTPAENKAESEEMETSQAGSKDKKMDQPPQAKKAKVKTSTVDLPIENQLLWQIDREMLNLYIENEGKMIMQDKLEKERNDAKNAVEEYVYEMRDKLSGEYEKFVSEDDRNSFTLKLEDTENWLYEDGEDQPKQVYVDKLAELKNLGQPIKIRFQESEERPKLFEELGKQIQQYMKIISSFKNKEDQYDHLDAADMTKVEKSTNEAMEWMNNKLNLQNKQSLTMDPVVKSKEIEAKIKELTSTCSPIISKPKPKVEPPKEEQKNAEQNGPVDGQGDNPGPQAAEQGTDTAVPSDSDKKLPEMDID

Row | Structure (SMILES) | Effect on cell viability (toxicity), A2058 (A2058 cells) | Fold lower toxic concentration in melanoma cell lines than IC50 for the isolated chaperone system (A2058 cells; melanoma cell lines (A2058 and MeWo) versus IC50 of the isolated chaperone system) | Toxicity in fibroblasts (fibroblasts (MRC-5)) | IC50 (Hsc70 + DnaJB1 + Apg2; [3]) [µM] | Effect on cell viability (toxicity), MeWo (MeWo cells) | IC50 (Hsc70 + DnaJB1) [µM] | Toxicity in melanocytes [1] | IC50 (Hsc70 + DnaJB1 + Apg2) [µM] | Toxicity in non-transformed cell lines [2]
1 | Cl.O[C@@H](c1cc(C(F)(F)F)nc2c(C(F)(F)F)cccc12)[C@H]1CCCCN1 [Compound 5, (S)-[2,8-bis(trifluoromethyl)quinolin-4-yl]-[(2R)-piperidin-2-yl]methanol hydrochloride] | Cell viability decreased | around 7 fold | no toxicity was observed | 97.3 ± 21.1 | Cell viability decreased | 107 ± 7.5 | no toxicity was observed | – | –
2 | CC=C(C)C(=O)OC1C(OC(C)=O)C2(CO)C(O)CC3(C)C(=CCC4C5(C)CCC(OC6OC(C(=O)O)C(OC7OC(CO)C(O)C(O)C7O)C(O)C6OC6OC(CO)C(O)C(O)C6O)C(C)(CO)C5CCC43C)C2CC1(C)C (centres unmarked) [Compound 4] | – | – | – | 47 ± 5.6 | – | 37.3 ± 1.8 | – | – | –
3 | CCc1oc2ccccc2c1C(=O)c1cc(Br)c(O)c(Br)c1 [Compound 3, (3,5-dibromo-4-hydroxyphenyl)-(2-ethyl-1-benzofuran-3-yl)methanone] | no toxicity was observed | – | – | – | no toxicity was observed | 10.1 ± 0.4 | – | 17.6 ± 0.1 | –
4 | O=C(O)Cc1cc(I)c(Oc2ccc(O)c(I)c2)c(I)c1 [Compound 6, 2-[4-(4-hydroxy-3-iodophenoxy)-3,5-diiodophenyl]acetic acid] | no toxicity was observed | – | – | – | no toxicity was observed | – | – | – | –
5 | [H]/N=C(\N/C(=N/[H])NCCCCCCNC(=N)NC(=N)Nc1ccc(Cl)cc1)Nc1ccc(Cl)cc1 [Compound 1, (1E)-2-[6-[[amino-[(E)-[amino-(4-chloroanilino)methylidene]amino]methylidene]amino]hexyl]-1-[amino-(4-chloroanilino)methylidene]guanidine] | Cell viability decreased | – | – | 14.5 ± 1.8 | Cell viability decreased | 11.9 ± 0.2 | – | – | toxicity in several non-transformed cell lines
